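Cells were grown in 96-well plates and exposed to each compound for 48 hours at five concentrations; endpoints were interpolated linearly between bracketing concentrations, or set to the highest concentration if not reached. GI50 is the concentration that inhibits growth by half. TGI is the concentration that stops growth completely.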
Key:
Assay in all cases: inhibition of tumour cell growth, NCI panel, 48 h
786-0 renal = tested on: 786-0 renal
A498 renal = tested on: A498 renal
A549 NSCLC = tested on: A549 NSCLC
ACHN renal = tested on: ACHN renal
BT-549 breast = tested on: BT-549 breast
CAKI-1 renal = tested on: CAKI-1 renal
CCRF-CEM leukemia = tested on: CCRF-CEM leukemia
COLO 205 colon = tested on: COLO 205 colon
DU-145 prostate = tested on: DU-145 prostate
HCC-2998 colon = tested on: HCC-2998 colon
HCT-116 colon = tested on: HCT-116 colon
HCT-15 colon = tested on: HCT-15 colon
HL-60(TB) leukemia = tested on: HL-60(TB) leukemia
HOP-62 NSCLC = tested on: HOP-62 NSCLC
HOP-92 NSCLC = tested on: HOP-92 NSCLC
HS 578T breast = tested on: HS 578T breast
HT29 colon = tested on: HT29 colon
IGROV1 ovarian = tested on: IGROV1 ovarian
K-562 leukemia = tested on: K-562 leukemia
KM12 colon = tested on: KM12 colon
M14 melanoma = tested on: M14 melanoma
MALME-3M melanoma = tested on: MALME-3M melanoma
MCF7 breast = tested on: MCF7 breast
MDA-MB-231 breast = tested on: MDA-MB-231 breast
MDA-MB-435 = tested on: MDA-MB-435
MOLT-4 leukemia = tested on: MOLT-4 leukemia
NCI-H226 lung = tested on: NCI-H226 lung
NCI-H23 lung = tested on: NCI-H23 lung

Oc1ccccc1/C=N/Nc1ccc2ccccc2n1
GI50 (786-0 renal): 5.81 µM | TGI (786-0 renal): > 100 µM | GI50 (A498 renal): 7.03 µM | TGI (A498 renal): > 100 µM | GI50 (A549 NSCLC): 5.33 µM | TGI (A549 NSCLC): > 100 µM | GI50 (ACHN renal): 2.86 µM | TGI (ACHN renal): 68.6 µM | GI50 (BT-549 breast): 8.08 µM | TGI (BT-549 breast): > 100 µM | GI50 (CAKI-1 renal): 2.98 µM | TGI (CAKI-1 renal): > 100 µM | GI50 (CCRF-CEM leukemia): 0.862 µM | TGI (CCRF-CEM leukemia): > 100 µM | GI50 (COLO 205 colon): 3.66 µM | TGI (COLO 205 colon): > 100 µM | GI50 (DU-145 prostate): 6.53 µM | TGI (DU-145 prostate): > 100 µM | GI50 (HCC-2998 colon): 6.59 µM | TGI (HCC-2998 colon): > 100 µM | GI50 (HCT-116 colon): 4.51 µM | TGI (HCT-116 colon): > 100 µM | GI50 (HCT-15 colon): 0.838 µM | TGI (HCT-15 colon): > 100 µM | GI50 (HL-60(TB) leukemia): 2.44 µM | TGI (HL-60(TB) leukemia): > 100 µM | GI50 (HOP-62 NSCLC): 7.09 µM | TGI (HOP-62 NSCLC): 44.7 µM | GI50 (HOP-92 NSCLC): 4.47 µM | TGI (HOP-92 NSCLC): 42.5 µM | GI50 (HS 578T breast): 6.87 µM | TGI (HS 578T breast): 76.3 µM | GI50 (HT29 colon): 9.46 µM | TGI (HT29 colon): > 100 µM | GI50 (IGROV1 ovarian): 3.18 µM | TGI (IGROV1 ovarian): 12.3 µM | GI50 (K-562 leukemia): 3.18 µM | TGI (K-562 leukemia): > 100 µM | GI50 (KM12 colon): 3.24 µM | TGI (KM12 colon): > 100 µM | GI50 (M14 melanoma): 3.65 µM | TGI (M14 melanoma): > 100 µM | GI50 (MALME-3M melanoma): 8.18 µM | TGI (MALME-3M melanoma): > 100 µM | GI50 (MCF7 breast): 4.92 µM | TGI (MCF7 breast): 91.5 µM | GI50 (MDA-MB-231 breast): 3.35 µM | TGI (MDA-MB-231 breast): > 100 µM | GI50 (MDA-MB-435): 6.42 µM | TGI (MDA-MB-435): > 100 µM | GI50 (MOLT-4 leukemia): 2.6 µM | TGI (MOLT-4 leukemia): > 100 µM | GI50 (NCI-H226 lung): 4.6 µM | TGI (NCI-H226 lung): > 100 µM | GI50 (NCI-H23 lung): 3.36 µM | TGI (NCI-H23 lung): > 100 µM

Reference: PubChem BioAssay (NCI)
